# pIC50: −log10 of the molar value.
# System: MV-4-11 cells
# Experiment: Cell Viability Assay in MV-4-11 Cells
# Format: cell-based
# Details: Homo sapiens, MV4-11, 72 h
# Summary of the method: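 MV-4-11 cells at 7,000/well in IMDM with 10% FBS, exposed to compound for 72 h. Viability by CellTiter-Glo luminescence, normalized to DMSO as 100%, fitted with a four-parameter curve.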
row,Structure (SMILES),pIC50
1,"Cc1cccc2ccnc(N(C(=O)c3ccc(C#N)cc3-c3cccnc3)[C@@H]3CCCNC3)c12 [Example 334, 4-cyano-N-(8-methyl-1-isoquinolyl)-N-[(3R)-3-piperidyl]-2-(3-pyridyl)benzamide]",< 5.00
2,"CNC(=S)Nc1ccc(-c2cc3c(N(C(=O)c4ccc(-c5cn(C)nn5)cc4F)[C@@H]4CCCNC4)nccc3s2)cc1 [Example 548, (R)-2-fluoro-4-(1-methyl-1H-1,2,3-triazol-4-yl)-N-(2-(4-(3-methylthioureido)phenyl)thieno[3,2-c]pyridin-4-yl)-N-(piperidin-3-yl)benzamide]",6.62

# Same assay, conditions: Homo sapiens, MV4-11, 72 h, MV-4-11 cells, 72 h, Cell-Titer Glo; read-out: IC50
row,Structure (SMILES),pIC50
1,"Cc1cn(-c2ccc(C(=O)N(c3nccc4cccc(Cl)c34)[C@@H]3CCCNC3)c(F)c2)nn1 [Example 393, (R)—N-(8-chloroisoquinolin-1-yl)-2-fluoro-4-(4-methyl-1H-1,2,3-triazol-1-yl)-N-(piperidin-3-yl)benzamide]",6.82
2,"Cc1nnc(-c2ccc(C(=O)N(c3nccc4cc(Cl)cc(C)c34)[C@@H]3CCCNC3)c(Cl)c2)o1 [Example 764, (R)-2-chloro-N-(6-chloro-8-methylisoquinolin-1-yl)-4-(5-methyl-1,3,4-oxadiazol-2-yl)-N-(piperidin-3-yl)benzamide]",< 5.12
3,"O=C(c1ccc(-n2nnc3cccnc32)cc1F)N(c1nccc2sc(-c3ccn(CCO)n3)cc12)[C@@H]1CCCNC1 [Example 418, (R)-4-(3H-[1,2,3]triazolo[4,5-b]pyridin-3-yl)-2-fluoro-N-(2-(1-(2-hydroxyethyl)-1H-pyrazol-3-yl)thieno[3,2-c]pyridin-4-yl)-N-(piperidin-3-yl)benzamide]",6.44
4,"Cc1cc(F)cc2ccnc(N(C(=O)c3ccc(-c4cn(C)nn4)cc3F)[C@@H]3CCCNC3)c12 [Example 474, (R)-2-fluoro-N-(6-fluoro-8-methylisoquinolin-1-yl)-4-(1-methyl-1H-1,2,3-triazol-4-yl)-N-(piperidin-3-yl)benzamide]",8.00
5,"Cn1ccc2ccnc(N(C(=O)c3ccc(Nc4ncccn4)cc3F)[C@@H]3CCCNC3)c21 [Example 926, (R)-2-fluoro-N-(1-methyl-1H-pyrrolo[2,3-c]pyridin-7-yl)-N-(piperidin-3-yl)-4-(pyrimidin-2-ylamino)benzamide]",7.12
6,"O=C(c1ccc(Nc2ncc(F)cn2)cc1F)N(c1nccc2cc(F)ccc12)[C@@H]1CCCNC1 [Example 787, (R)-2-fluoro-N-(6-fluoroisoquinolin-1-yl)-4-((5-fluoropyrimidin-2-yl)amino)-N-(piperidin-3-yl)benzamide]",5.52
7,"O=C(c1ccc(-n2nnc3cccnc32)cc1F)N(c1nccc2sc(-c3cccc(O)c3)cc12)[C@@H]1CCCNC1 [Example 381, 2-fluoro-N-[2-(3-hydroxyphenyl)thieno[3,2-c]pyridin-4-yl]-N-[(3R)-3-piperidyl]-4-(triazolo[4,5-b]pyridin-3-yl)benzamide]",6.70
8,"Cn1cc(-c2ccc(C(=O)N(c3nccc4sc(Br)cc34)[C@@H]3CCCNC3)c(F)c2)nn1 [Example 506, N-(2-bromothieno[3,2-c]pyridin-4-yl)-2-fluoro-4-(1-methyltriazol-4-yl)-N-[(3R)-3-piperidyl] benzamide]",6.15
9,"O=C(c1ccc(-c2cccnn2)cn1)N(c1nccc2cc(Cl)ccc12)[C@@H]1CCCNC1 [Example 806, N-(6-chloro-1-isoquinolyl)-N-[(3R)-3-piperidyl]-5-pyridazin-3-yl-pyridine-2-carboxamide]",6.17
10,"Cc1cccc2ccnc(N(C(=O)c3ccc(Nc4nccc(-c5ccccc5)n4)cc3F)[C@@H]3CCCNC3)c12 [Example 559, (R)-2-fluoro-N-(8-methylisoquinolin-1-yl)-4-((4-phenylpyrimidin-2-yl)amino)-N-(piperidin-3-yl)benzamide]",7.47
11,"COc1ccc(C)c2c(N(C(=O)c3ccc(-c4nnc(C)s4)nc3)[C@@H]3CCCNC3)nccc12 [Example 902, N-(5-methoxy-8-methyl-1-isoquinolyl)-6-(5-methyl-1,3,4-thiadiazol-2-yl)-N-[(3R)-3-piperidyl] pyridine-3-carboxamide]",6.42
12,"Cn1cc(-c2ccc(C(=O)N(c3nccc4cc(Cl)ccc34)[C@@H]3CCCNC3)c(F)c2)nn1 [Example 470, N-(6-chloro-1-isoquinolyl)-2-fluoro-4-(1-methyltriazol-4-yl)-N-[(3R)-3-piperidyl]benzamide]",7.04
13,"O=C(c1ccc(-n2nnc3cccnc32)cc1F)N(c1nccc2sc(Cc3ccccc3)cc12)[C@@H]1CCCNC1 [Example 466, N-(2-benzylthieno[3,2-c]pyridin-4-yl)-2-fluoro-N-[(3R)-3-piperidyl]-4-(triazolo[4,5-b]pyridin-3-yl)benzamide]",6.36
14,"COc1cc(C)c2c(N(C(=O)c3ccc(-c4nnc(C)s4)cn3)[C@@H]3CCCNC3)nccc2c1 [Example 864, N-(6-methoxy-8-methyl-1-isoquinolyl)-5-(5-methyl-1,3,4-thiadiazol-2-yl)-N-[(3R)-3-piperidyl]pyridine-2-carboxamide]",6.89
15,"[2H]C([2H])([2H])c1nnc(-c2ccc(C(=O)N(c3nccc4cc(C)cc(C)c34)[C@@H]3CCCNC3)cc2)s1 [Example 907, N-(6,8-dimethyl-1-isoquinolyl)-N-[(3R)-3-piperidyl]-4-[5-(trideuteriomethyl)-1,3,4-thiadiazol-2-yl]benzamide]",6.89
16,"Cc1cccc2ccnc(N(C(=O)c3ccc(Nc4nccc(N5CCNC(=O)C5)n4)cc3F)[C@@H]3CCCNC3)c12 [Example 938, (R)-2-fluoro-N-(8-methylisoquinolin-1-yl)-4-((4-(3-oxopiperazin-1-yl)pyrimidin-2-yl)amino)-N-(piperidin-3-yl)benzamide]",6.54
17,"COCc1nnc(-c2ccc(C(=O)N(c3nccc4cc(C)cc(C)c34)[C@@H]3CCCNC3)cn2)s1 [Example 896, N-(6,8-dimethyl-1-isoquinolyl)-6-[5-(methoxymethyl)-1,3,4-thiadiazol-2-yl]-N-[(3R)-3-piperidyl] pyridine-3-carboxamide]",7.34
18,"COC(=O)[C@@H]1COCCN1c1ccnc(Nc2ccc(C(=O)N(c3nccc4cccc(C)c34)[C@@H]3CCCNC3)c(F)c2)n1 [Example 945, methyl(S)-4-(2-((3-fluoro-4-((8-methylisoquinolin-1-yl)((R)-piperidin-3-yl)carbamoyl)phenyl)amino)pyrimidin-4-yl)morpholine-3-carboxylate]",7.33
19,"Cc1nnc(-c2ccc(C(=O)N(c3nccc4cc(F)cc(C)c34)[C@@H]3CCCNC3)nc2)s1 [Example 784, (R)—N-(6-fluoro-8-methylisoquinolin-1-yl)-5-(5-methyl-1,3,4-thiadiazol-2-yl)-N-(piperidin-3-yl)picolinamide]",6.54
20,"Cc1cc(Cl)cc2ccnc(N(C(=O)c3ccc(-c4nnn(C)c4C)cc3F)[C@@H]3CCCNC3)c12 [Example 763, (R)—N-(6-chloro-8-methylisoquinolin-1-yl)-4-(1,5-dimethyl-1H-1,2,3-triazol-4-yl)-2-fluoro-N-(piperidin-3-yl)benzamide]",7.47
21,"Cc1csc2ccnc(N(C(=O)c3ccc(-c4nnc(CCC#N)s4)cc3)[C@@H]3CCCNC3)c12 [Example 882, 4-[5-(2-cyanoethyl)-1,3,4-thiadiazol-2-yl]-N-(3-methylthieno[3,2-c]pyridin-4-yl)-N-[(3R)-3-piperidyl]benzamide]",6.74
22,"Cn1cc(-c2ccc(C(=O)N(c3nccc4sc(-c5ccc6c(c5)C(=O)NC6)cc34)[C@@H]3CCCNC3)c(F)c2)nn1 [Example 533, 2-fluoro-4-(1-methyltriazol-4-yl)-N-[2-(3-oxoisoindolin-5-yl)thieno[3,2-c]pyridin-4-yl]-N-[(3R)-3-piperidyl]benzamide]",6.04
23,"Cc1cccc2ccnc(N(C(=O)c3ccc(-c4cn(CCC#N)nn4)cc3F)[C@@H]3CCCNC3)c12 [Example 888, 4-[1-(2-cyanoethyl)triazol-4-yl]-2-fluoro-N-(8-methyl-1-isoquinolyl)-N-[(3R)-3-piperidyl]benzamide]",7.59
24,"Cc1nnc(-c2ccc(C(=O)N(c3nccc4cccc(C)c34)[C@@H]3CCCNC3)c(C)c2)s1 [Example 628, (R)-2-methyl-4-(5-methyl-1,3,4-thiadiazol-2-yl)-N-(8-methylisoquinolin-1-yl)-N-(piperidin-3-yl)benzamide]",6.20
25,"Cc1csc2ccnc(N(C(=O)c3ccc(-c4nnc(CCC#N)s4)cc3F)[C@@H]3CCCNC3)c12 [Example 883, 4-[5-(2-cyanoethyl)-1,3,4-thiadiazol-2-yl]-2-fluoro-N-(3-methylthieno[3,2-c]pyridin-4-yl)-N-[(3R)-3-piperidyl]benzamide]",6.80
26,"Cc1nnc(-c2ccc(C(=O)N(c3nccc4scc(C)c34)[C@@H]3CCCNC3)cn2)s1 [Example 629, 6-(5-methyl-1,3,4-thiadiazol-2-yl)-N-(3-methylthieno[3,2-c]pyridin-4-yl)-N-[(3R)-3-piperidyl]pyridine-3-carboxamide]",6.80
27,"Cc1cc(C2CCN(C(=O)N(c3nccc4scc(C)c34)[C@@H]3CCCNC3)CC2)on1 [Example 796, (R)-4-(3-methylisoxazol-5-yl)-N-(3-methylthieno[3,2-c]pyridin-4-yl)-N-(piperidin-3-yl)piperidine-1-carboxamide]",6.29
28,"Cc1cccc2ccnc(N(C(=O)c3ccc(Nc4nccc(N5CCOC[C@H]5C(C)C)n4)cc3F)[C@@H]3CCCNC3)c12 [Example 941, 2-fluoro-4-((4-((R)-3-isopropylmorpholino)pyrimidin-2-yl)amino)-N-(8-methylisoquinolin-1-yl)-N—((R)-piperidin-3-yl)benzamide]",7.41
29,"Cc1nnc(-c2ccc(C(=O)N(c3nccc4scc(C)c34)[C@@H]3CCCNC3)nc2)s1 [Example 810, (R)-5-(5-methyl-1,3,4-thiadiazol-2-yl)-N-(3-methylthieno[3,2-c]pyridin-4-yl)-N-(piperidin-3-yl)picolinamide]",6.77

# Source: patent US20240400555A1 (Initial Therapeutics, Inc., priority 2023, published 2024)
